According to patent EP1984353B1, “AURORA KINASE MODULATORS AND METHOD OF USE” (Amgen, Inc, priority 2006, dated 2007):
Like-named read-outs stand apart in the source and are kept apart here.

Legend:
AuroraA-TPX2 = molecular target: T1, AuroraA-TPX2 (Homo sapiens, UniProt O14965); assay: AuroraA-TPX2 Homogeneous Time Resolved Fluorescent (HTRF) kinase assay; assay type: biochemical; conditions: average, read-out: AurA/TP X2_ IC50_IP (Avg)
T1 construct: 20 µL of AuroraA-TPX2 KD GST; GST
T1 sequence (O14965 133-383 limits assumed): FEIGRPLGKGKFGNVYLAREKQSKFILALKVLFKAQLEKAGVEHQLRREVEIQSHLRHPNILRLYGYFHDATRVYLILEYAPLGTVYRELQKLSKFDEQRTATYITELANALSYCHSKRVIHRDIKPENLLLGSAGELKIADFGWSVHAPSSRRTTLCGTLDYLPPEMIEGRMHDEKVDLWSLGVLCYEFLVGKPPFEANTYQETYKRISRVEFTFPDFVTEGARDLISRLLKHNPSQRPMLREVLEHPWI
T1 sequence (Q9ULW0 1-43 partner limits assumed): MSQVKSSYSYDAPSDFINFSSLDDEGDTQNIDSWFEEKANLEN
Method: AuroraA-TPX2-Homogeneous Time Resolved Fluorescent (HTRF) Kinase Assay:
The Aurora-A HTRF assay begins with Aurora-A in the presence of ATP phosphorylating the biotinylated peptide PLK. The reaction incubates for about 120 min. Detection reagents are added to quench the reaction. These agents stop the reaction by diluting out the enzyme and chelating the metals due to the presence of EDTA. After addition, the assay is incubated overnight to allow the detection reagents to equilibrate.
The final concentration of PLK is about 1 µM. […] Buffer conditions are as follows: 60mM HEPES pH 7.5, 25mM NaCl, 10mM MgCl, 2mM DTT, 0.05% BSA.
(§1) The assay is quenched and stopped with 160 µL, of detection reagent. Detection reagents are as follows: Buffer made of 50mM Tris, pH 7.5, 100mM NaCl, 3mM EDTA, 0.05% BSA, 0.1% Tween20. Added to this buffer prior to reading is Steptavidin allophycocyanin (SA-APC) at a final conc in the assay of 0.0005 mg/mL, and europilated anti-phosphoPLK Ab (Eu-anti-PLK) at a final conc of 0.02 nM.
The assay plate is read in either a Discovery or a RubyStar. The eu-anti-PLK is excited at 320 nm and emits at 615 nm to excite the SA-APC which in turn emits at 655 nm.

AuroraB = molecular target: T2, AuroraB (Homo sapiens, UniProt Q96GD4); assay: AuroraB Homogeneous Time Resolved Fluorescent (HTRF) kinase assay; assay type: biochemical; conditions: average, read-out: AurB_ _IC50_IP (Avg)
T2 construct: 20 µL of AuroraB FL His; His
T2 sequence (Q96GD4 whole entry): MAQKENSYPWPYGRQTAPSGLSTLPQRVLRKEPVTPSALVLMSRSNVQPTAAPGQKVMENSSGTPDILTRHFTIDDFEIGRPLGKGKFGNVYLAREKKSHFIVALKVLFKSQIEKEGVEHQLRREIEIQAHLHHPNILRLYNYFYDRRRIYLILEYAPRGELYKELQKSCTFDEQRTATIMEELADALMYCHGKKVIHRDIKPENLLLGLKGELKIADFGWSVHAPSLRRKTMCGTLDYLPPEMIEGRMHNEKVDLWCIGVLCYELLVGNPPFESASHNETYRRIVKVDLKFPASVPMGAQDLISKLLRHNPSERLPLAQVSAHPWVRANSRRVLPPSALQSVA
Method: AuroraB-Homogeneous Time Resolved Fluorescent (HTRF) Kinase Assay:
The AuroraB HTRF assay begins with AuroraB in the presence of ATP phosphorylating the biotinylated peptide Histone H3. The reaction incubates for about 90 min. the reaction is quentched by addition of detection reagents, which stop the reaction by diluting out the enzyme and chelating the metals due to the presence of EDTA. After addition, the assay is incubated for about 60 min to allow detection reagents to equilibrate.
The AuroraB HTRF assay comprises 1 µL of compound in 100% DMSO, 20 µL of ATP and biotinylated Histone H3, and 20 µL of AuroraB FL His for a final volume of 41 µL. The final concentration of Histone H3 is 0.1 µM. The final concentration of ATP is 23 µM (Km(app) = 23 µM+/-2.6) and the final concentration of AuroraB is 400 pM. Buffer conditions are as follows: 50mM HEPES pH 7.5, 5mM NaCl, 0.5mM MgCl, 0.5mM MnCl, 2mM DTT, 0.05% BSA.
as §1, with “µL” for “µL,”, “0.001” for “0.0005”, “anti-phosphoHistoneH3” for “anti-phosphoPLK”, “(Eu-anti-HisH3)” for “(Eu-anti-PLK)”, “0.064” for “0.02”
The assay plate is read in either a Discovery or a RubyStar. The eu-anti-HisH3 is excited at 320 nm and emits at 615 nm to excite the SA-APC which in turn emits at 655 nm. The ratio of SA-APC at 655 nm (excited due to close proximity to the Eu-anti-HisH3 because of phosphorylation of the peptide) to free Eu-anti-HisH3 at 615 nm will give substrate phosphorylation.

[1] = given as numbers, unit inferred

IC50 (AuroraA-TPX2; given as class symbols) [nM] | IC50 (AuroraB; given as class symbols) [nM] | IC50 (AuroraA-TPX2; [1]) [nM] | IC50 (AuroraB; [1]) [nM] | Compound
≤ 100 | ≤ 100 | – | – | COc1cccc(-c2nnc(Nc3ccc(Oc4ncccc4-c4ccnc(N)n4)cc3)c3ccccc23)n1 [compound 292, N-(4-((3-(2-amino-4-pyrimidinyl)-2-pyridinyl)oxy)phenyl)-4-(6-(methyloxy)-2-pyridinyl)-1-phthalazinamine]
≤ 100 | ≤ 100 | – | – | COc1cccc(-c2nnc(Nc3ccc(Oc4ncccc4-c4ccnc(N)n4)nc3)c3ccccc23)n1 [compound 293, N-(6-((3-(2-amino-4-pyrimidinyl)-2-pyridinyl)oxy)-3-pyridinyl)-4-(6-(methyloxy)-2-pyridinyl)-1-phthalazinamine]
≤ 100 | ≤ 100 | – | – | Nc1nccc(-c2cccnc2Oc2ccc(Nc3nnc(-c4cccc(CO)n4)c4ccccc34)cc2)n1 [compound 297, (6-(4-((4-((3-(2-amino-4-pyrimidinyl)-2-pyridinyl)oxy)phenyl)amino)-1-phthalazinyl)-2-pyridinyl)methanol]
≤ 100 | ≤ 100 | – | – | Nc1nccc(-c2cccnc2Oc2ccc(Nc3nnc(-c4ccccc4)c4ccsc34)cn2)n1 [compound 313, N-(6-((3-(2-amino-4-pyrimidinyl)-2-pyridinyl)oxy)-3-pyridinyl)-4-phenylthieno[2,3-d]pyridazin-7-amine]
≤ 100 | ≤ 100 | – | – | Nc1nccc(-c2cccnc2Oc2ccc(Nc3nnc(-c4ccc(Cl)cc4)c4ccccc34)cn2)n1 [compound 315, N-(6-((3-(2-amino-4-pyrimidinyl)-2-pyridinyl)oxy)-3-pyridinyl)-4-(4-chlorophenyl)-1-phthalazinamine]

More lines, now with the values behind:

Compound | IC50 (AuroraA-TPX2; given as class symbols) [nM] | IC50 (AuroraB; given as class symbols) [nM] | IC50 (AuroraA-TPX2; [1]) [nM] | IC50 (AuroraB; [1]) [nM]
c1ccc(-c2nnc(Nc3ccc(Oc4ncccc4-c4ccnc(NCCCN5CCC5)n4)cc3)c3ccccc23)cc1 [compound 295, N-(4-((3-(2-((3-(1-azetidinyl)propyl)amino)-4-pyrimidinyl)-2-pyridinyl)oxy)phenyl)-4-phenyl-1-phthalazinamine] | 100 to 500 | ≤ 100 | – | –
CC(=O)OCc1cccc(-c2nnc(Nc3ccc(Oc4ncccc4-c4ccnc(N)n4)cc3)c3ccccc23)n1 [compound 296, (6-(4-((4-((3-(2-amino-4-pyrimidinyl)-2-pyridinyl)oxy)phenyl)amino)-1-phthalazinyl)-2-pyridinyl)methyl acetate] | ≤ 100 | ≤ 100 | – | –
ONc1nccc(-c2cccnc2Oc2ccc(Nc3nnc(-c4ccccc4)c4ccccc34)cc2)n1 [compound 310, N-(4-((3-(2-(hydroxyamino)-4-pyrimidinyl)-2-pyridinyl)oxy)phenyl)-4-phenyl-1-phthalazinamine] | ≤ 100 | ≤ 100 | – | –
c1ccc(-c2nnc(Nc3ncc(Oc4ncccc4-c4ccncc4)cn3)c3ccccc23)cc1 [compound 311, N-(5-(3,4'-bipyridin-2-yloxy)-2-pyrimidinyl)-4-phenyl-1-phthalazinamine] | 500 to 2500 | 500 to 2500 | – | –
Cc1csc(-c2nnc(Nc3ccc(Oc4ncccc4-c4c[nH]nc4N)c(F)c3)c3ccccc23)n1 [compound 312, N-(4-((3-(3-amino-1H-pyrazol-4-yl)-2-pyridinyl)oxy)-3-fluorophenyl)-4-(4-methyl-1,3-thiazol-2-yl)-1-phthalazinamine] | ≤ 100 | ≤ 100 | – | –
Nc1n[nH]cc1-c1cccnc1Oc1ccc(Nc2nnc(-c3ccccc3)c3ccccc23)cc1F [compound 314, N-(4-((3-(3-amino-1H-pyrazol-4-yl)-2-pyridinyl)oxy)-3-fluorophenyl)-4-phenyl-1-phthalazinamine] | – | – | 4.5 | 2.4
CS(=O)(=O)c1cccc(-c2nnc(Nc3ccc(Oc4ncccc4-c4ccnc(N)n4)cc3)c3ccccc23)c1 [compound 316, N-(4-((3-(2-amino-4-pyrimidinyl)-2-pyridinyl)oxy)phenyl)-4-(3-(methylsulfonyl)phenyl)-1-phthalazinamine] | ≤ 100 | ≤ 100 | – | –
